# Data taken from patent US7175991B2, “Method of measuring binding site on plasma protein of plasma protein-binding drug and method of measuring plasma protein mutation” (Nihon Medi-Physics Co., Ltd., priority 2002, dated 2007).
# Read-outs that look alike come from different tables or passages of the source.
# Tests used:
# HSA Site II and AGP [1] = details: human, 400 μM, pH 7.4
# AGP Site A and B [2] = details: for Change ratio (time) of ^3H-PPL free drug ratio / Free drug ratio (%) of ^3H-PPL: human, 400 μM, pH 7.4
# HSA Site II = HSA Site II (Homo sapiens, UniProt P02768); details: for Change ratio (time) of ^14C-DZP free drug ratio / Free drug ratio (%) of ^14C-DZP: human, 400 μM, pH 7.4
# HSA Site II, sequence (P02768 25-609): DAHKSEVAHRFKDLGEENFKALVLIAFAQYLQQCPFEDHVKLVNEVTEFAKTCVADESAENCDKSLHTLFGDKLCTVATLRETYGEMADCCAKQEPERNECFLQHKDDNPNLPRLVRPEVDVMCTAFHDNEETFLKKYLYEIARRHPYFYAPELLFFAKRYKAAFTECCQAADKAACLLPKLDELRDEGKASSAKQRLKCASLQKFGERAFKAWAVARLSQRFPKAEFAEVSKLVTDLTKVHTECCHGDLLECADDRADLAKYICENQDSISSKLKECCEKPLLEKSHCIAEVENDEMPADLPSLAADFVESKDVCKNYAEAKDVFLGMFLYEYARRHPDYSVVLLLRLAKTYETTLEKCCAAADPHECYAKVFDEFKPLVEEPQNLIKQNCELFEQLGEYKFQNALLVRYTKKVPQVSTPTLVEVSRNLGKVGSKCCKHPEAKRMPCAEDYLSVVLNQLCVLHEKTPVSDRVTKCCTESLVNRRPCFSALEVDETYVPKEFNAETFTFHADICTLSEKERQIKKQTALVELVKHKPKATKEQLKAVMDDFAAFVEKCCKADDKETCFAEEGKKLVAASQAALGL
# HSA Site I [3] = molecular target: T1, HSA Site I (Homo sapiens, UniProt P02768); details: 400 μM, pH 7.4
# T1 sequence (P02768 25-609): as above
# AGP Site A and B [4] = experiment: Four-nuclide simultaneous measurement, human serum 2 (AGP variant): displacement of ^3H-PPL
# From the text: (§1) In addition, the possibility of monitoring the protein binding displacement effect of a drug in the serum was examined.
# HSA Site II and AGP [5] = experiment: Table 6, two-nuclide simultaneous measure, human pooled serum: column headed ^125I-IMP; details: physiological saline instead of displacement drug
# HSA Site II and AGP [6] = experiment: Four-nuclide simultaneous measurement, human serum 2 (AGP variant): displacement of ^125I-IMP
# From the text: as §1
# HSA Site II and AGP [7] = experiment: Four-nuclide simultaneous measurement, human serum 1: displacement of ^125I-IMP; details: human serum 1, four nuclides
# HSA Site I [8] = molecular target: T1, HSA Site I; experiment: Four-nuclide simultaneous measurement, human serum 2 (AGP variant): displacement of ^99mTcO4^-
# From the text: as §1
# HSA Site I [9] = molecular target: T1, HSA Site I; experiment: Four-nuclide simultaneous measurement, human serum 1: displacement of ^99mTcO4^-; details: human serum 1, four nuclides
# HSA Site I [10] = molecular target: T1, HSA Site I; experiment: Table 6, two-nuclide simultaneous measure, human pooled serum: column headed ^99mTcO4^-; details: physiological saline instead of displacement drug
# HSA Site I [11] = molecular target: T1, HSA Site I; details: human serum 1; added drug 400 μM
# plasma protein = details: used in the concentration of a diagnostic agent; cited from earlier work
# [12] = physiological saline control (Table 8)
# [13] = physiological saline instead of drug (Table 7)
# [14] = physiological saline instead of displacement drug (Table 5)
# [15] = physiological saline instead of drug (Table 4)
smiles,measurement,setting,value
"CC[C@H]1OC(=O)[C@H](C)[C@@H](O[C@H]2C[C@@](C)(OC)[C@@H](O)[C@H](C)O2)[C@H](C)[C@@H](O[C@@H]2O[C@H](C)C[C@H](N(C)C)[C@H]2O)[C@](C)(O)C[C@@H](C)C(=O)[C@H](C)[C@@H](O)[C@]1(C)O [ETM, erythromycin]",Change ratio (time) of ^125I-IMP free drug ratio,HSA Site II and AGP [1],1.61 time
same,Free drug ratio (%) of ^125I-IMP,HSA Site II and AGP [1],54.78%
same,"Effect on free drug with affinity to AGP, in words",AGP Site A and B [2],effective displacement drug
same,Change ratio (time) of ^3H-PPL free drug ratio,AGP Site A and B [2],1.93 time
same,Free drug ratio (%) of ^3H-PPL,AGP Site A and B [2],23.79%
same,Change ratio (time) of ^14C-DZP free drug ratio,HSA Site II,1.04 time
same,Free drug ratio (%) of ^14C-DZP,HSA Site II,2.67%
same,Change ratio (time) of ^99mTcO4^- free drug ratio,HSA Site I [3],0.99 time
same,Free drug ratio (%) of ^99mTcO4^-,HSA Site I [3],0.88%
"CC(C)Cc1ccc(C(C)C(=O)O)cc1 (stereo not shown) [IPF, ibuprofen]","Effect on binding of ^3H-PPL, in words",AGP Site A and B [4],increased
CC(C)NC(C)Cc1ccc([125I])cc1 (stereo not shown) [^125I-IMP],"Free drug ratio of control (%), ^125I-IMP",HSA Site II and AGP [5],33.98%
same,"Free drug ratio of control (%), ^125I-IMP",HSA Site II and AGP [6]; [12],27.23%
same,"Free drug ratio of control (%), ^125I-IMP",HSA Site II and AGP [6]; [13],27.23%
same,"Free drug ratio of control (%), ^125I-IMP",HSA Site II and AGP [7]; [14],23.40%
same,"Free drug ratio of control (%), ^125I-IMP",HSA Site II and AGP [7]; [15],23.40%
"[O]=[99Tc](=[O])(=[O])[O-] [^99 mTcO4^-, Pertechnetium acid]","Free drug ratio of control (%), ^99mTcO4^-",HSA Site I [8]; [12],21.08%
same,"Free drug ratio of control (%), ^99mTcO4^-",HSA Site I [8]; [13],21.08%
same,"Free drug ratio of control (%), ^99mTcO4^-",HSA Site I [9]; [14],21.07%
same,"Free drug ratio of control (%), ^99mTcO4^-",HSA Site I [9]; [15],21.07%
same,"Free drug ratio of control (%), ^99mTcO4^-",HSA Site I [10],0.90%
"CCCCC1C(=O)NC(=O)N(C2CCCCC2)C1=O (stereo not shown) [BCL, bucolome]","Displacement effect on ^14C-WRF, in words",HSA Site I [11],significant displacement effect
same,"Displacement effect on ^99mTcO4^-, in words",HSA Site I [8],significant displacement effect
same,"Effect on binding of ^3H-PPL, in words",AGP Site A and B [4]; human serum 2 (AGP variant),increased
same,"Displacement effect on drug with affinity to site I of HSA (^99mTcO4^-), in words",HSA Site I [9],significant displacement effect
same,"Effect on binding of ^125I-IMP, in words",HSA Site II and AGP [6],increased
"CC(=O)N[C@@H](Cc1c[nH]c2ccccc12)C(=O)O [NAT, N-acetyltryptophan]",Change ratio (time) of ^125I-IMP free drug ratio,HSA Site II and AGP [1],1.01 time
same,Free drug ratio (%) of ^125I-IMP,HSA Site II and AGP [1],34.19%
same,"Effect on free drug with affinity to AGP, in words",AGP Site A and B [2],effect to reduce the concentration to some extent
same,Change ratio (time) of ^3H-PPL free drug ratio,AGP Site A and B [2],0.94 time
same,Free drug ratio (%) of ^3H-PPL,AGP Site A and B [2],11.54%
same,"Effect on free drug with affinity to site II of HSA, in words",HSA Site II,effective displacement drug
same,Change ratio (time) of ^14C-DZP free drug ratio,HSA Site II,1.21 time
same,Free drug ratio (%) of ^14C-DZP,HSA Site II,3.08%
same,Change ratio (time) of ^99mTcO4^- free drug ratio,HSA Site I [3],1.07 time
same,Free drug ratio (%) of ^99mTcO4^-,HSA Site I [3],0.97%
"O=C([O-])CN=C([O-])CN=C([O-])CN=C([O-])C[S-].[O-2].[Tc+4] [^99mTc-MAG3, 99m-technetium labeled mercaptoacetylglycylglycylglycine]",Binding to plasma protein,plasma protein,about 90%
"N[C@@H](Cc1c[nH]c2ccccc12)C(=O)O [Trp, tryptophan]",Change ratio (time) of ^125I-IMP free drug ratio,HSA Site II and AGP [1],0.94 time
same,Change ratio (time) of ^3H-PPL free drug ratio,AGP Site A and B [2],1.01 time
same,Change ratio (time) of ^14C-DZP free drug ratio,HSA Site II,2.25 time
same,Change ratio (time) of ^99mTcO4^- free drug ratio,HSA Site I [3],1.08 time
